Format in all cases: cell-based
Assay [1] concerns Panc-1 cells. Put plainly: Panc-1 cell proliferation (MTS). As to the method:
Panc-1 pancreatic adenocarcinoma cells (1.0×10^3 cells/well) were cultured in the presence or absence of S100P (100 nM) and with or without cromolyn (100 μM), and cell proliferation was analyzed at 24, 48, and 72 hours. Means and 95% confidence intervals of three independent experiments performed in triplicate are shown. *, P=0.001, S100P alone versus S100P+cromolyn.
Panc-1 cells were plated at 1.0×10^3 cells/well and treated with platelet-derived growth factor (10 ng/mL) with or without cromolyn (100 μM), and cell proliferation was analyzed after 48 hours. Means and 95% confidence intervals of three independent experiments performed in triplicate are shown. *, P=0.004 PDGF and P=0.022 cromolyn+PDGF versus control.
Growth of Panc-1 and BxPC3 pancreatic adenocarcinoma cells was analyzed using MTS reagent (Promega, Madison, Wis.) according to the manufacturer's directions. Purified S100P (100 nM final concentration) with or without cromolyn (100 μM final concentration) was added to Panc-1 cells. Only cromolyn (0-100 μM) was added to BxPC-3 cells, which express endogenous S100P. For both cell models, 1.0×10^3 cells/well were plated in 96-well culture dishes. Cells were treated with S100P, PDGF, or cromolyn, or a combination, followed immediately by treatment with either S100P or PDGF. MTS (20 μL per well) was added to cells at various times, and the mixture was incubated for 1 hour at 37° C. Samples were then read at 490 nm (as O.D. units) on a uQuant-Microplate Spectrophotometer (Bio-Tek Services Inc., Richmond, Va.). The assay was performed three times in triplicate.

For assay [2], the system named is Panc-1 cells. Put plainly: Panc-1 matrigel invasion assay. The procedure: FIGS. 2A-2D show the effect of cromolyn on pancreatic cancer cell invasion. Panc-1 and BxPC-3 cells were plated in Bio-coat matrigel and control chambers and cultured in serum-free culture media. After 24 hours non-invaded cells in the upper chamber were removed, and cells that invaded onto the lower surface of the membrane were counted from five adjacent fields. […] Data are expressed as the percent invasion through the matrigel matrix and membrane relative to migration through the control membrane. Means and 95% confidence intervals from three independent experiments performed in triplicate are shown. Two-tailed two-sample (unpaired) Student's t-tests were used to determine P values.
Panc-1 and BxPC-3 cells were seeded in BIOCOAT matrigel invasion chambers and in control chambers without matrigel (Becton-Dickinson, Bedford, Mass.) according to the manufacturer's protocol. Panc-1 cells were seeded with S100P (100 nM) with or without cromolyn (100 μM), and BxPC-3 cells were seeded with or without cromolyn (1-100 μM). Briefly, 2.0×10^5 cells in 300 μL top solution (serum-free media) were added to each chamber and allowed to invade matrigel for 24 hours at 37° C. in a 5% CO2 atmosphere. The non-invading cells on the upper surface of membrane were removed from the chambers with a cotton swab, and the invading cells on the lower surface of the membrane were fixed and stained using a Diff-Quick stain kit (Becton Dickinson, Bedford, Mass.). After two washes with water, the chambers were allowed to air dry. The numbers of invading cells in five adjacent microscope fields per membrane were counted at 20× magnification to obtain the average number of cells per field. Data are expressed as the percent invasion through the matrigel matrix and membrane relative to the migration through the control membrane. The assays were performed three times.

The test system of another assay is SKOV3 ovarian cells. The assay is described as follows: SKOV3 ovarian cell proliferation. As to conditions: different concentrations; 24, 48, 72 hours. As to the method: SKOV3 ovarian cells were cultured for up to three days in the presence of different concentrations of cromolyn, and cell proliferation was analyzed at 24, 48, and 72 hours. *, P<0.05.
A further assay has as its system PC3 prostate cells. The assay is described as follows: PC3 prostate cell proliferation. To be noted: different concentrations; 24, 48, 72 hours. The procedure:
PC3 prostate cells were cultured for up to three days in the presence of different concentrations of cromolyn, and cell proliferation was analyzed at 24, 48, and 72 hours. *, P<0.05.

The next assay relates to SW480 cells. Put plainly: SW480 colon cancer cell invasion (matrigel, transwell). As to conditions: cromolyn 10 μM and 100 μM, 24 hours. As to the method:
SW480 cells were plated on top of a layer of matrigel in a Boyden type chamber (transwell). Media containing 5% FBS was placed in the lower well and the cells were allowed to invade the matrigel layer for 24 hours in the presence of different concentrations of cromolyn.

`O=C(O)c1cc(=O)c2c(OCC(O)COc3cccc4oc(C(=O)O)cc(=O)c34)cccc2o1` [cromolyn, disodium 1,3-bis[(2′-carboxylatochromon-5′-yl)oxy]-2-hydroxypropane]: the “serum stimulated cell proliferation” value with Panc-1 cells [1] (Panc-1) is recorded as “did not influence”. In addition, the “cell proliferation, cromolyn treatment alone” value in the assay on Panc-1 cells [1] (Panc-1, no S100P) is reported as “no effect”. Besides, in the assay on Panc-1 cells [1] (Panc-1, PDGF 10 ng/mL with cromolyn 100 μM, 48 hours), the “PDGF stimulated cell growth” value is recorded as “nor did it inhibit growth stimulation caused by PDGF”. The “cell proliferation, mean” value in the assay with Panc-1 cells [1] (Panc-1, S100P 100 nM + cromolyn 100 μM) was 0.56 MTS units. For the same molecule, in the assay with Panc-1 cells [1] (Panc-1, S100P 100 nM, cromolyn 100 μM), the “cell proliferation, difference S100P versus S100P+cromolyn” value was found to be 0.37 MTS units. In the assay on Panc-1 cells [2] (Panc-1, no S100P), the basal cell invasion result was “did not reduce”. Moreover, the “cells invaded, mean” value in the assay on Panc-1 cells [2] (Panc-1, S100P 100 nM + cromolyn 100 μM, 24 hours) was 9.4%. The “cells invaded, difference S100P versus S100P+cromolyn” value with Panc-1 cells [2] (Panc-1, S100P 100 nM, cromolyn 100 μM, 24 hours) worked out at 48.6%. In addition, the “growth of SKOV3 cells” value in the assay with SKOV3 ovarian cells was “reduced the growth”. In addition, the “growth of PC3 cells” value with PC3 prostate cells was “reduced growth”. Also, the “invasiveness of SW480 cells” value in the assay on SW480 cells was “reduced the invasiveness”.
